B1: GDNF: recombinant human mature GDNF obtained from Genentech (protein, UniProt P39905 78-211, looked up)
Glial cell line-derived …: SPDKQMAVLPRRERNRQAAAANPENSRGKGRRGQRGKNRGCVLTAIHLNVTDLGLGYETKEELIFRYCSGSCDAAETTYDKILKNLSRNRRLVSDKVGQACCRPIAFDDDLSFLDDNLVYHILRKHSAKRCGCI

What was measured:
[1] = system: nodose ganglion (NG) neurons; assay: Survival of cultured nodose ganglion neurons; format: cell-based, rat; settings: FIG. 7D; for survival of NG neurons: 50 ng/ml, 3 days in culture; for survival promotion of NG neurons compared with BDNF: GDNF family ligands 50 ng/ml, BDNF 100 ng/ml
Protocol: (§1) Each GDNF ligand family member consisted of the human mature amino acid sequence and was produced by standard recombinant DNA methods. Recombinant GDNF, neurturin and persephin were obtained from Genentech while recombinant artemin was produced as described in Example 3.
(§2) The cultures were performed using standard methods described elsewhere (Kotzbauer et al., Neuron 12:763-773, 1994; Kotzbauer et al., Nature 384:467-470, 1996; Milbrandt et al., Neuron 20:245-253, 1998). In brief, for SCG neurons, after dissection and dissociation, neurons were plated on collagen-coated 24-well tissue culture plates and maintained in NGF-containing medium (AM50) for 5 days, after which they were either kept in AM50 or switched to medium containing neutralizing anti-NGF antibodies plus GDNF, neurturin, persephin, artemin, (50 ng/ml where not noted otherwise), or no growth factors. Cultures were maintained for 3 days, after which they were fixed in 4% paraformaldehyde and stained with toluidine blue, and surviving neurons were counted. For nodose ganglion and dorsal root ganglion neuron cultures, dissociated neurons were plated directly into NGF (for dorsal root ganglia), or BDNF (for nodose ganglia, 100 ng/ml) or one of the GDNF ligands in serum-containing medium (AM50 with anti-NGF antibodies), and cells surviving after 3 days in culture were counted as above. Trigeminal ganglia were dissected, dissociated, and plated directly into medium containing NGF or the indicated GDNF ligands, and the number of surviving cells was assessed after 3 days in vitro. For all culture systems, 2-3 independent experiments were performed.

[2] = system: dorsal root ganglion (DRG) neurons; assay: Survival of cultured dorsal root ganglion neurons; format: cell-based, rat
Protocol: as §1, §2

[3] = system: trigeminal ganglion (TG) neurons; assay: Survival of cultured trigeminal ganglion neurons; format: cell-based, rat; settings: 50 ng/ml, FIG. 7C; for survival of TG sensory neurons: 3 days in vitro
Protocol: as §1, §2

[4] = system: CHP134 neuroblastoma cell line; assay: Responsiveness of a neuroblastoma cell line that does not express RET (CHP134); format: cell-based; settings: data not shown
GFRα1-Fc = assay: Direct binding of soluble GFRα1-Fc receptor body to plate-coated ligand; settings: ligand coated at 325 ng/ml, absence of RET, FIG. 9C
Protocol: To investigate which if any of the known coreceptor(s) artemin can utilize to activate RET, its ability to directly bind to soluble Fc-fusion forms of GFRα1, GFRα2, or GFRα3 was assessed. GFRα1-Fc, GFRα2-Fc and GFRα3-Fc fusion proteins were obtained from R&D Systems. Binding assays were performed similarly to assays previously described (Sanicola et al., Proc. Natl. Acad. Sci., USA 94:6238-6243, 1997). Recombinant GDNF, neurturin, artemin, persephin, or purified bovine serum albumin (BSA; Pierce) were coated to Nunc-Immuno MaxiSorp microtiter plates at 325 ng/ml in TBS (10 mM Tris-HCl pH 7.5, 150 mM NaCl) for 1 hour at 25° C. Plates were washed (3× in TBS/0.03% Tween-20), and then blocked (blocking solution: TBS/1% BSA) for 1 hr at 25° C. Receptor bodies diluted in blocking solution were added and incubated for 2 hr at 25° C., washed 5X, then incubated with 1:10,000 dilution of HRP-conjugated anti-human Fc antibodies in blocking solution (Jackson Immunoresearch) for 45 minutes at 25° C. Finally, wells were washed 5× and the presence of HRP was assayed by addition of the chromogenic substrate 3,3, 5,5-tetramethylbenzidine for 5 min. The reaction was stopped by adding an equal volume of 0.5M H2SO4, and color was measured in a plate reader at 450 nm. Non-specific binding of receptor bodies to the plates was measured in BSA coated wells, and this binding was subtracted from all other measurements.

[5] = system: NLF cells transformed with GFRα1; assay: Ga14-Elk/Ga14-Luc reporter in NLF neuroblastoma cells transformed with GFRα1; format: cell-based; settings: factor for 24 hours, low-serum medium, FIG. 10B
Protocol: Thus, to directly test which receptor combinations can form functional receptors for artemin, expression plasmids for the individual GFRA coreceptors together with the Ga14-Elk/Ga14-Luc reporter system were transiently transformed into fibroblasts that stably express RET. […]
NLF neuroblastoma cells, which naturally express GFRα2/RET (Tansey et al., submitted), or the RET-3T3 cells were plated at 85,000 cells/well in 12-well plates, and cotransfected with the reporter plasmids Ga14-Luc and CMV-Ga14-Elk (250 ng/well and 50 ng/well, respectively), CMV-lacZ (50 ng/well) for transfection normalization, one of the CMV-GFRA expression plasmids (500 ng/well), and pBluescript (650 ng/well) as carrier for a total of 1.5 μg DNA/well using the Superfect reagent (Qiagen) according to the manufacturer's instructions. […] Measurement of luciferase and β-galactosidase activity was measured using a luminometer and performed as described (Svaren et al., EMBO J 17:6010-6019, 1998). The average luciferase activity of duplicate samples was normalized to β-galactosidase activity of the cotransformed lacZ reporter, and fold activation was calculated by dividing the normalized activity in factor-treated cells by that in the no treatment control.

[6] = 50 ng/ml, 3 days in culture, FIG. 7A

Molecule | survival of NG neurons [1] | survival promotion of NG neurons compared with BDNF [1] | survival of DRG sensory neurons [2, 6] | number of DRG neurons supported compared with GDNF or neurturin ([2]; 50 ng/ml, FIG. 7A) | EC50 of survival promoting effect on DRG neurons ([2]; dose response, P1 rat DRG neurons, 3 days in culture, FIG. 7B) | EC50 ([2]; dose response, P1 rat DRG neurons, molar figure, FIG. 7B, read-out: EC50 of survival promoting effect on DRG neurons) | survival of TG sensory neurons [3] | number of TG neurons supported compared with GDNF or neurturin [3] | number of TG neurons supported compared with NGF [3] | response of CHP134 cells [4] | direct binding of GFRα1-Fc (GFRα1-Fc) | response of NLF cells transformed with GFRα1 (luciferase reporter) [5]
artemin: recombinant mature human artemin (FIG. 3A, SEQ ID NO:3) with 8-histidine tag, produced in E. coli; GDNF family neurotrophic factor | supported similar numbers of NG neurons | equal or greater survival promotion than BDNF | supported the survival of a subset of sensory neurons | supported a larger number of neurons than GDNF or neurturin | 1 to 3 ng/mL | ~0.1 nM | supported the survival of a subset of sensory neurons | supported a larger number of neurons than GDNF or neurturin | a greater number (TG) | did not respond | not to persephin or artemin | became responsive to artemin
B1 | supported similar numbers of NG neurons | equal or greater survival promotion than BDNF | supported the survival of a subset of sensory neurons |  |  |  | supported the survival of a subset of sensory neurons |  |  | did not respond | able to bind to both GDNF and neurturin with similar affinity | responded more intensely to GDNF
